Values joined by “and” are separate entries in the source; they are usually repeats but may differ in a detail not shown here. Equal values may be shown once. Read-outs that look alike come from different tables or passages of the source. Blank lines part the entries; values can stand above or below the compound they belong to.
Legend:
sucrase = test: Sucrase inhibition assay; assay type: biochemical; conditions: mean ± SD; triplicate; sucrose substrate, 37 °C; read-out: IC50 Values (μM) Against Sucrase
Experimental: 3.5.2. Sucrase Inhibition Assay
The sucrase inhibition assay was performed according to the method outlined by Honda et al. with some modifications. In brief, 10 µL of enzyme solution (100 U/mL) and 30 µL of test sample solution with appropriate concentration (dissolved in distilled water) were added into the 96-well plates, and were incubated for 10 min at 37 °C. The reaction was conducted by addition of 100 µL of sucrose solution (60 mM, dissolved in 0.1 M phosphate buffer solution). Then, the mixture was added to 200 µL of 3,5-dinitrosalysilic acid, which was heated in boiling water for 5 min to stop the reaction. The absorbance of each tested compound was measured at 540 nm. The inhibition rates were calculated using the following equation. All experiments were measured in triplicate, and a logarithmic regression curve was established to calculate IC50 values. (1) Inhibition % = Acontrol - Asample/Acontrol × 100 where Acontrol represents the absorbance of the mixture of […], sucrose solution 3,5-dinitrosalysilic acid and enzyme solution; while the Asample is the absorbance of the mixture of phosphate buffer, sucrose solution 3,5-dinitrosalysilic acid and enzyme solution.

pancreatic lipase (PL) = biological target: T1, pancreatic lipase (PL) (Sus scrofa, UniProt P00591); test: Pancreatic lipase (PL) inhibition assay (pNP laurate method); assay type: biochemical; conditions: mean ± SD; triplicate; pNP laurate substrate, 30 min at 37 °C, Tris buffer pH 8.2; read-out: IC50 Values (μM) Against PL
T1 construct: purchased Sigma Aldrich Co. (St Louis, MO, USA)
T1 sequence (P00591 1-450): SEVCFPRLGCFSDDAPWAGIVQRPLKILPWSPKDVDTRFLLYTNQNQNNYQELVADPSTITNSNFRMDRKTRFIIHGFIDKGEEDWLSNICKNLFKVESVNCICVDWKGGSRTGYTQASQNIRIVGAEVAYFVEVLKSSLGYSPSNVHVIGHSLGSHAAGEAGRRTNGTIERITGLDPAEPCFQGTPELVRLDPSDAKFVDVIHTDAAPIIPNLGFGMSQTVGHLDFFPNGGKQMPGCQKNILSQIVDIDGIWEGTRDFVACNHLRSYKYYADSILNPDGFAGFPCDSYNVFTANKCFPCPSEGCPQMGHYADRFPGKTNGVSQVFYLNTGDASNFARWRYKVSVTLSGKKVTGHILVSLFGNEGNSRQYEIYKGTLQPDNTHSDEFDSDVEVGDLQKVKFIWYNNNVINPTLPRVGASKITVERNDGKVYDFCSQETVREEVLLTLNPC
Experimental: 3.6. Pancreatic Lipase (PL) Inhibition Assay
This assay was carried out using p-nitrophenyl laurate (pNP laurate) method with slight modification. In detail, 150 µL lipase solution (10 mg/mL, dissolved in the 0.1 M Tris buffer) was mixed with 50 µL tested sample solution (inhibitors) in a 1.5 mL centrifuge tube, then 350 µL 0.1 M Tris buffer (pH = 8.2) was added and pre-incubated. After the addition of 450 µL pNP laurate (substrate), the reaction was incubated for 30 min at 37 °C. The mixtures were heated in boiling water for 5 min to terminate the reaction. After cooling to RT, the tube was centrifuged at 12,000 rpm for 3 min. A portion of 100 µL of mixture was added into a 96-well plate, which was measured at 405 nm. The percentage of inhibitory activities was calculated using the formula below. All data were performed in triplicate, and a logarithmic regression curve was established to calculate IC50 values. (2) Inhibition% = [1 - (Asample - Ablank/Atest - Acontrol)] × 100 where Asample is the absorbance of the mixture of sample solution, pNP solution and enzyme solution; Ablank is the absorbance of the mixture of sample solution and pNP solution without enzyme; Atest is the absorbance of the mixture of Tris buffer, pNP solution and enzyme solution; Acontrol is the absorbance of the mixture of Tris buffer and pNP solution without enzyme.

[1] = biological target: T2, porcine pancreatic α-amylase (PPA) (Sus scrofa, UniProt P00690); test: Porcine pancreatic α-amylase (PPA) inhibition assay
T2 sequence (P00690 16-511): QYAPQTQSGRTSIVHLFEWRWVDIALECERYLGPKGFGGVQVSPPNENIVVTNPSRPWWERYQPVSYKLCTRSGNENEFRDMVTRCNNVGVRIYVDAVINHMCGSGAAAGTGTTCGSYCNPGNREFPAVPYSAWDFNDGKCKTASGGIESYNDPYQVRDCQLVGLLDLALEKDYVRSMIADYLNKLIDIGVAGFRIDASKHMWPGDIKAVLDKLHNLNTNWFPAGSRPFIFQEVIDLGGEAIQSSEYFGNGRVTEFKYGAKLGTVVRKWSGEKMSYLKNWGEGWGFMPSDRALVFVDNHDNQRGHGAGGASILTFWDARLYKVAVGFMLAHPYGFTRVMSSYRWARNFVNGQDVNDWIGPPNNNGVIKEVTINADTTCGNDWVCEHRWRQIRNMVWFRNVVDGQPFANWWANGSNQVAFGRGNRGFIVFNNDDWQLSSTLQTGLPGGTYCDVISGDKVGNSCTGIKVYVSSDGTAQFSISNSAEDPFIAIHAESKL

[2] = biological target: T2, porcine pancreatic α-amylase (PPA); parameters: purchased Sigma Aldrich Co. (St Louis, MO, USA); method as in PMID 30360574; conditions: earlier study of the same authors; cited from earlier work

Structure (SMILES): CCC(=O)OC[C@H]1O[C@H](O[C@H]2[C@H](O)[C@@H](O)[C@@H](O[C@H]3[C@H](O)[C@@H](O)[C@@H](O[C@H]4[C@H](O)[C@@H](O)C(O)O[C@@H]4CO)O[C@@H]3CO)O[C@@H]2CO)[C@H](O)[C@@H](O)[C@@H]1O[C@H]1O[C@H](C)[C@@H](N[C@H]2C=C(CO)[C@@H](O)[C@H](O)[C@H]2O)[C@H](O)[C@H]1O (some centres unmarked) [Compound 6, D6-O-propionyl-acarviostatin I03]
IC50 (sucrase): 2.36 ± 0.12 µM
IC50 (pancreatic lipase (PL)): 15.9 ± 0.6 µM

Structure (SMILES): CC(C)CC(=O)OC[C@H]1O[C@H](O[C@H]2[C@H](O)[C@@H](O)[C@@H](O[C@H]3[C@H](O)[C@@H](O)[C@@H](O[C@H]4[C@H](O)[C@@H](O)C(O)O[C@@H]4CO)O[C@@H]3CO)O[C@@H]2CO)[C@H](O)[C@@H](O)[C@@H]1O[C@H]1O[C@H](C)[C@@H](N[C@H]2C=C(CO)[C@@H](O)[C@H](O)[C@H]2O)[C@H](O)[C@H]1O (some centres unmarked) [Compound 4, isovalertatin M03]
IC50 (sucrase): 9.34 ± 0.12 µM
IC50 (pancreatic lipase (PL)): 3.2 ± 0.1 µM
IC50 [1]: 0.34 ± 0.07 µM

Structure (SMILES): CCC(C)C(=O)OCC1OC(OC2C(CO)OC(OC3C(CO)OC(OC4C(CO)OC(O)C(O)C4O)C(O)C3O)C(O)C2O)C(O)C(O)C1OC1OC(C)C(NC2C=C(CO)C(O)C(O)C2O)C(O)C1O (centres unmarked) [Compound 2, D6-O-2-methyl-butyryl-acarviostatin I03]
IC50 (sucrase): 3.12 ± 0.1 µM
IC50 (pancreatic lipase (PL)): 4.92 ± 0.2 µM
IC50 [1]: 0.15 ± 0.01 µM

Structure (SMILES): CC(C)C(=O)OCC1OC(OC2C(CO)OC(OC3C(CO)OC(OC4C(CO)OC(O)C(O)C4O)C(O)C3O)C(O)C2O)C(O)C(O)C1OC1OC(C)C(NC2C=C(CO)C(O)C(O)C2O)C(O)C1O (centres unmarked) [Compound 1]
IC50 (sucrase): 5.5 ± 0.09 µM
IC50 (pancreatic lipase (PL)): 2.16 ± 0.6 µM
IC50 [1]: 0.22 ± 0.04 µM

Structure (SMILES): C[C@H]1O[C@H](O[C@H]2[C@H](O)[C@@H](O)[C@@H](O[C@H]3[C@H](O)[C@@H](O)C(O)O[C@@H]3CO)O[C@@H]2CO)[C@H](O)[C@@H](O)[C@@H]1N[C@H]1C=C(CO)[C@@H](O)[C@H](O)[C@H]1O (some centres unmarked) [acarbose, reference compound]
IC50 (sucrase): 11.3 ± 0.2 µM
IC50 (pancreatic lipase (PL)): > 200 µM and 208 µM

Further lines, with some results ahead:

IC50 (sucrase): 1.45 ± 0.07 µM
IC50 (pancreatic lipase (PL)): 0.82 ± 0.08 µM
IC50 ([1]; read-out: IC50 Values (μM) Against PPA, mean ± SD, acarbose as positive control): 0.04 ± 0.01 µM
Structure (SMILES): CC(C)C(=O)OCC1OC(OC2C(CO)OC(OC3C(CO)OC(OC4C(CO)OC(O)C(O)C4O)C(O)C3O)C(O)C2O)C(O)C(O)C1OC1OC(C)C(NC2C=C(CO)C(OC3OC(CO)C(OC4OC(C)C(NC5C=C(CO)C(O)C(O)C5O)C(O)C4O)C(O)C3O)C(O)C2O)C(O)C1O (centres unmarked) [Compound 3]

IC50 (sucrase): 0.41 ± 0.05 µM
IC50 (pancreatic lipase (PL)): 2 ± 0.18 µM
Structure (SMILES): CC(=O)OC[C@H]1O[C@H](O[C@H]2[C@H](O)[C@@H](O)[C@@H](O[C@H]3[C@H](O)[C@@H](O)[C@@H](O[C@H]4[C@H](O)[C@@H](O)C(O)O[C@@H]4CO)O[C@@H]3CO)O[C@@H]2CO)[C@H](O)[C@@H](O)[C@@H]1O[C@H]1O[C@H](C)[C@@H](N[C@H]2C=C(CO)[C@@H](O[C@H]3O[C@H](CO)[C@@H](O[C@H]4O[C@H](C)[C@@H](N[C@H]5C=C(CO)[C@@H](O)[C@H](O)[C@H]5O)[C@H](O)[C@H]4O)[C@H](O)[C@H]3O)[C@H](O)[C@H]2O)[C@H](O)[C@H]1O (some centres unmarked) [Compound 8, D6-O-acetyl-acarviostatin II03]
α-amylase IC50, fold stronger than acarbose [2]: 540 fold

IC50 (sucrase): 3.68 ± 0.13 µM
IC50 (pancreatic lipase (PL)): 8.1 ± 0.6 µM
Structure (SMILES): CC(O)CC(=O)OC[C@H]1O[C@H](O[C@H]2[C@H](O)[C@@H](O)[C@@H](O[C@H]3[C@H](O)[C@@H](O)[C@@H](O[C@H]4[C@H](O)[C@@H](O)C(O)O[C@@H]4CO)O[C@@H]3CO)O[C@@H]2CO)[C@H](O)[C@@H](O)[C@@H]1O[C@H]1O[C@H](C)[C@@H](N[C@H]2C=C(CO)[C@@H](O)[C@H](O)[C@H]2O)[C@H](O)[C@H]1O (stereo partly drawn) [Compound 7, D6-O-β-hydroxybutyryl-acarviostatin I03]

IC50 (sucrase): 2.98 ± 0.1 µM
IC50 (pancreatic lipase (PL)): 19.7 ± 1 µM
Structure (SMILES): CC(=O)OC[C@H]1O[C@H](O[C@H]2[C@H](O)[C@@H](O)[C@@H](O[C@H]3[C@H](O)[C@@H](O)[C@@H](O[C@H]4[C@H](O)[C@@H](O)C(O)O[C@@H]4CO)O[C@@H]3CO)O[C@@H]2CO)[C@H](O)[C@@H](O)[C@@H]1O[C@H]1O[C@H](C)[C@@H](N[C@H]2C=C(CO)[C@@H](O)[C@H](O)[C@H]2O)[C@H](O)[C@H]1O (some centres unmarked) [Compound 5, D6-O-acetyl-acarviostatin I03]

— PMC7699847, “Acylated Aminooligosaccharides from the Yellow Sea Streptomyces sp. HO1518 as Both α-Glucosidase and Lipase Inhibitors” (Marine Drugs, 2020)
